Assay results taken from ChEMBL document CHEMBL1201862, “PubChem BioAssay data set” (2004).
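48-hour exposure; five concentrations; linearly interpolated endpoints. At the GI50, growth is halved.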 The source made the active and inactive calls. Rule as the data show it: active = GI50 up to about 1.1 µM and inactive = higher.

Assays:
Test in all cases: DTP human tumour cell line panel, 48 h
786-0 = system: 786-0
A498 = system: A498
A549 = system: A549
ACHN = system: ACHN
BT-549 = system: BT-549
CAKI-1 = system: CAKI-1
CCRF-CEM = system: CCRF-CEM
COLO 205 = system: COLO 205
DU-145 = system: DU-145
EKVX = system: EKVX
HCC 2998 = system: HCC 2998
HCT-116 = system: HCT-116
HCT-15 = system: HCT-15
HOP-62 = system: HOP-62
HOP-92 = system: HOP-92
HT-29 = system: HT-29
Hs-578T = system: Hs-578T
IGROV-1 = system: IGROV-1
K562 = system: K562
KM12 = system: KM12
LOX IMVI = system: LOX IMVI
M14 = system: M14
MCF7 = system: MCF7
MDA-MB-231 = system: MDA-MB-231
MDA-MB-435 = system: MDA-MB-435
MDA-N = system: MDA-N
MOLT-4 = system: MOLT-4
Malme-3M = system: Malme-3M
NCI-H226 = system: NCI-H226
NCI-H23 = system: NCI-H23
NCI-H460 = system: NCI-H460
NCI-H522 = system: NCI-H522
NCI/ADR-RES = system: NCI/ADR-RES
OVCAR-3 = system: OVCAR-3
OVCAR-4 = system: OVCAR-4
OVCAR-5 = system: OVCAR-5
OVCAR-8 = system: OVCAR-8
PC-3 = system: PC-3
RPMI-8226 = system: RPMI-8226
RXF 393 = system: RXF 393
SF-268 = system: SF-268
SF-295 = system: SF-295
SF-539 = system: SF-539
SK-MEL-28 = system: SK-MEL-28
SK-MEL-2 = system: SK-MEL-2
SK-MEL-5 = system: SK-MEL-5
SK-OV-3 = system: SK-OV-3
SN12C = system: SN12C
SNB-19 = system: SNB-19
SNB-75 = system: SNB-75
SR = system: SR
SW-620 = system: SW-620
T47D = system: T47D
TK-10 = system: TK-10
U-251 = system: U-251
UACC-257 = system: UACC-257
UACC-62 = system: UACC-62
UO-31 = system: UO-31
HL-60 = system: HL-60

COc1cc2c(cc1OCc1ccccc1)NC(=O)[C@@H]1CCCN1C2=O
GI50 (786-0): > 100 µM (inactive) | GI50 (A498): > 100 µM (inactive) | GI50 (A549): > 100 µM (inactive) | GI50 (ACHN): > 100 µM (inactive) | GI50 (BT-549): > 100 µM (inactive) | GI50 (CAKI-1): > 100 µM (inactive) | GI50 (CCRF-CEM): > 100 µM (inactive) | GI50 (COLO 205): > 100 µM (inactive) | GI50 (DU-145): > 100 µM (inactive) | GI50 (EKVX): > 100 µM (inactive) | GI50 (HCC 2998): > 100 µM (inactive) | GI50 (HCT-116): > 100 µM (inactive) | GI50 (HCT-15): > 100 µM | GI50 (HOP-62): > 100 µM (inactive) | GI50 (HOP-92): > 100 µM (inactive) | GI50 (HT-29): > 100 µM (inactive) | GI50 (Hs-578T): > 100 µM (inactive) | GI50 (IGROV-1): 58.9 µM (inactive) | GI50 (K562): > 100 µM (inactive) | GI50 (KM12): > 100 µM (inactive) | GI50 (LOX IMVI): > 100 µM (inactive) | GI50 (M14): > 100 µM (inactive) | GI50 (MCF7): > 100 µM (inactive) | GI50 (MDA-MB-231): > 100 µM (inactive) | GI50 (MDA-MB-435): > 100 µM (inactive) | GI50 (MDA-N): > 100 µM (inactive) | GI50 (MOLT-4): > 100 µM (inactive) | GI50 (Malme-3M): > 100 µM (inactive) | GI50 (NCI-H226): > 100 µM (inactive) | GI50 (NCI-H23): > 100 µM (inactive) | GI50 (NCI-H460): > 100 µM (inactive) | GI50 (NCI-H522): > 100 µM (inactive) | GI50 (NCI/ADR-RES): > 100 µM (inactive) | GI50 (OVCAR-3): > 100 µM (inactive) | GI50 (OVCAR-4): > 100 µM (inactive) | GI50 (OVCAR-5): > 100 µM (inactive) | GI50 (OVCAR-8): > 100 µM (inactive) | GI50 (PC-3): > 100 µM (inactive) | GI50 (RPMI-8226): > 100 µM (inactive) | GI50 (RXF 393): 82 µM (inactive) | GI50 (SF-268): > 100 µM (inactive) | GI50 (SF-295): > 100 µM (inactive) | GI50 (SF-539): > 100 µM (inactive) | GI50 (SK-MEL-28): > 100 µM (inactive) | GI50 (SK-MEL-2): > 100 µM (inactive) | GI50 (SK-MEL-5): > 100 µM (inactive) | GI50 (SK-OV-3): > 100 µM (inactive) | GI50 (SN12C): > 100 µM (inactive) | GI50 (SNB-19): > 100 µM (inactive) | GI50 (SNB-75): > 100 µM (inactive) | GI50 (SR): > 100 µM (inactive) | GI50 (SW-620): > 100 µM (inactive) | GI50 (T47D): > 100 µM (inactive) | GI50 (TK-10): > 100 µM (inactive) | GI50 (U-251): > 100 µM (inactive) | GI50 (UACC-257): > 100 µM (inactive) | GI50 (UACC-62): > 100 µM (inactive) | GI50 (UO-31): > 100 µM (inactive)

O=c1ccc2ccc(OP(=O)(O)O)cc2o1
GI50 (786-0): > 100 µM (inactive) | GI50 (A498): > 100 µM (inactive) | GI50 (A549): > 100 µM (inactive) | GI50 (ACHN): > 100 µM (inactive) | GI50 (BT-549): > 100 µM (inactive) | GI50 (CAKI-1): > 100 µM (inactive) | GI50 (CCRF-CEM): > 100 µM (inactive) | GI50 (COLO 205): > 100 µM (inactive) | GI50 (DU-145): 93.1 µM (inactive) | GI50 (EKVX): > 100 µM (inactive) | GI50 (HCC 2998): > 100 µM (inactive) | GI50 (HCT-116): > 100 µM (inactive) | GI50 (HCT-15): > 100 µM | GI50 (HL-60): > 100 µM (inactive) | GI50 (HOP-62): > 100 µM (inactive) | GI50 (HT-29): > 100 µM (inactive) | GI50 (Hs-578T): > 100 µM (inactive) | GI50 (IGROV-1): > 100 µM (inactive) | GI50 (K562): > 100 µM (inactive) | GI50 (KM12): > 100 µM (inactive) | GI50 (LOX IMVI): > 100 µM (inactive) | GI50 (M14): > 100 µM (inactive) | GI50 (MCF7): > 100 µM (inactive) | GI50 (MDA-MB-231): > 100 µM (inactive) | GI50 (MDA-MB-435): > 100 µM (inactive) | GI50 (MDA-N): > 100 µM (inactive) | GI50 (MOLT-4): > 100 µM (inactive) | GI50 (Malme-3M): > 100 µM (inactive) | GI50 (NCI-H226): > 100 µM (inactive) | GI50 (NCI-H23): > 100 µM (inactive) | GI50 (NCI-H460): > 100 µM (inactive) | GI50 (NCI-H522): > 100 µM (inactive) | GI50 (NCI/ADR-RES): > 100 µM (inactive) | GI50 (OVCAR-3): > 100 µM (inactive) | GI50 (OVCAR-4): > 100 µM (inactive) | GI50 (OVCAR-5): > 100 µM (inactive) | GI50 (OVCAR-8): > 100 µM (inactive) | GI50 (PC-3): > 100 µM (inactive) | GI50 (RPMI-8226): > 100 µM (inactive) | GI50 (RXF 393): > 100 µM (inactive) | GI50 (SF-268): > 100 µM (inactive) | GI50 (SF-295): > 100 µM (inactive) | GI50 (SF-539): > 100 µM (inactive) | GI50 (SK-MEL-28): > 100 µM (inactive) | GI50 (SK-MEL-2): > 100 µM (inactive) | GI50 (SK-MEL-5): > 100 µM (inactive) | GI50 (SK-OV-3): > 100 µM (inactive) | GI50 (SN12C): > 100 µM (inactive) | GI50 (SNB-19): > 100 µM (inactive) | GI50 (SNB-75): > 100 µM (inactive) | GI50 (SR): > 100 µM (inactive) | GI50 (SW-620): > 100 µM (inactive) | GI50 (T47D): > 100 µM (inactive) | GI50 (TK-10): > 100 µM (inactive) | GI50 (U-251): > 100 µM (inactive) | GI50 (UACC-257): > 100 µM (inactive) | GI50 (UACC-62): > 100 µM (inactive) | GI50 (UO-31): > 100 µM (inactive)

CN(C)CC1CCC/C(=C\c2ccccc2)C1=O (configuration not stated)
GI50 (786-0): 2.65 µM (inactive) | GI50 (A498): 17.4 µM (inactive) | GI50 (A549): 19 µM (inactive) | GI50 (ACHN): 3.5 µM (inactive) | GI50 (BT-549): 7.69 µM (inactive) | GI50 (CAKI-1): 1.77 µM (inactive) | GI50 (CCRF-CEM): 0.959 µM (active) | GI50 (COLO 205): 2.24 µM (inactive) | GI50 (DU-145): 15.3 µM (inactive) | GI50 (EKVX): 17.9 µM (inactive) | GI50 (HCC 2998): 15.5 µM (inactive) | GI50 (HCT-116): 1.56 µM (inactive) | GI50 (HCT-15): 2.14 µM | GI50 (HL-60): 0.512 µM (active) | GI50 (HOP-62): 19.9 µM (inactive) | GI50 (HOP-92): 2.44 µM (inactive) | GI50 (HT-29): 1.75 µM (inactive) | GI50 (Hs-578T): 2.77 µM (inactive) | GI50 (IGROV-1): 3.74 µM (inactive) | GI50 (KM12): 1.19 µM (inactive) | GI50 (LOX IMVI): 1.69 µM (inactive) | GI50 (MCF7): 0.575 µM (active) | GI50 (MDA-MB-231): 1.98 µM (inactive) | GI50 (MDA-MB-435): 1.78 µM (inactive) | GI50 (MDA-N): 2.99 µM (inactive) | GI50 (MOLT-4): 4.6 µM (inactive) | GI50 (Malme-3M): 1.85 µM (inactive) | GI50 (NCI-H226): 2.82 µM (inactive) | GI50 (NCI-H23): 10.2 µM (inactive) | GI50 (NCI-H460): 3.1 µM (inactive) | GI50 (NCI-H522): 1.57 µM (inactive) | GI50 (NCI/ADR-RES): 10.8 µM (inactive) | GI50 (OVCAR-3): 1.94 µM (inactive) | GI50 (OVCAR-4): 1.6 µM (inactive) | GI50 (OVCAR-5): 15.6 µM (inactive) | GI50 (OVCAR-8): 3.94 µM (inactive) | GI50 (PC-3): 8.49 µM (inactive) | GI50 (RXF 393): 2.84 µM (inactive) | GI50 (SF-268): 2.94 µM (inactive) | GI50 (SF-295): 19.5 µM (inactive) | GI50 (SF-539): 4.04 µM (inactive) | GI50 (SK-MEL-28): 2.23 µM (inactive) | GI50 (SK-MEL-2): 5.5 µM (inactive) | GI50 (SK-MEL-5): 8.79 µM (inactive) | GI50 (SK-OV-3): 19.8 µM (inactive) | GI50 (SN12C): 6.14 µM (inactive) | GI50 (SNB-19): 16.2 µM (inactive) | GI50 (SNB-75): 13.8 µM (inactive) | GI50 (SR): 0.944 µM (active) | GI50 (SW-620): 1.55 µM (inactive) | GI50 (T47D): 2.12 µM (inactive) | GI50 (TK-10): 2.36 µM (inactive) | GI50 (U-251): 15.4 µM (inactive) | GI50 (UACC-257): 2.55 µM (inactive) | GI50 (UACC-62): 7.01 µM (inactive) | GI50 (UO-31): 2.32 µM (inactive)
